For one data set, the system named is rats. Kind of data set: Plantar Heat Stimulation Test (paw withdrawal latency) after subcutaneous injection into hindpaw. The note with it: for Antinociceptive effect, treated versus untreated (contralateral) paw: 100 μl subcutaneously into hindpaw (pure isoflurane n=4; 2% lidocaine n=3), P<0.05. The format is in vivo, rat. How it is done:
Intraplanar Administration of Isoflurane: 100 μl of pure form Isoflurane or 100 μl of 2% Lidocaine was injected subcutaneously into the planar surface of the hindpaw. Every rat, the contralateral hindpaw, served as its own control.
Measurement of Paw Withdrawal Latency: Rats are tested for response to thermal stimulation using radiant heat (Planar Analgesia Instrument, UgoBasile, Italy). After the rats acclimate for 15 min under the acrylic boxes that allow minimal movement, the heat source was positioned beneath the mid-plantar surface of the hind paw. Withdrawal latency is defined as the period of time from the beginning of the thermal stimulation to the brisk withdrawal of the hind paw. To avoid tissue damage, a cutoff time of 22s was set. Thermal stimulation was applied three times to each hind paw at an inter-stimulus interval of 3-5 min. Thermalnociceptive threshold was assessed before and after the treatment. An increase in the withdrawal threshold in the treated paw compared to the control paw is assessed as analgesic activity of the tested formulation.
Statistical Analysis: For statistical comparison, student paired t-test analysis was used. Differences were considered significant at P<0.05.

Another data set deals with Sprague-Dawley rats. Put plainly: Intrathecal injection of isoflurane or sevoflurane, hotplate test (thermal withdrawal latency). The data set is classed as in vivo, rat. The conditions noted are these: for Thermal withdrawal latency, Average (per rat): average of three tests, both paws; for Thermal withdrawal latency, Group Average: four rats; for Thermal withdrawal latency, Test 1 Left / Thermal withdrawal latency, Test 1 Right / Thermal withdrawal latency, Test 2 Left / Thermal withdrawal latency, Test 2 Right / Thermal withdrawal latency, Test 3 Left / Thermal withdrawal latency, Test 3 Right: individual rats, cutoff 25 seconds; for Adverse effects / Full recovery from the intrathecal injection (return to thermal latency baseline): intrathecal 2 microliters, rats; for Analgesic effect: intrathecally delivered dose of 2 microliters. How it is done:
This study was designed to evaluate efficacy of direct intrathecal injection of anesthetic agent gases in reducing pain and providing analgesia. The study was conducted over a one (1) month period using anesthetic gases isoflurane and sevoflurane injected directly intrathecally or dissolved in saline as shown in the studies below. The subject animal used was the rat, since the rat has a well-established model of pain/analgesia testing. In particular, Sprague-Dawley rats weighing over 350gm were used. The rats were anesthetized with pentobarbital (50mg/kg), and the anesthetic depth of the animals was determined by corneal reflex and paw withdrawal reflex to a noxious stimulus.
[…]. A midline surgical dissection of the posterior neck muscles was performed to obtain access to the occipito-atlantoid membrane. This membrane was identified and then dissected. A sterile polyethylene catheter was introduced in the subarachnoid space until the lumbar enlargement of the spinal cord (approximately 7-8 cm measured in each animal). The surgical wound was closed, first suturing the neck muscles with 3-0 silk sutures and then closing the skin incision with staples.
After the surgery, the rats were moved to their cages and a radiant lamp was placed over the cages so that the rats would not undergo anesthetic-induced hypothermia. The rats were continuously monitored from the end of the surgery until they were fully awake. Rats showing any motor impairment after surgery were euthanized.
On the fifth day after surgery, those rats without wound infection or motor dysfunction were transported to the pain behavioral lab to enter the intrathecal study with volatile anesthetics. Twelve rats were selected for the study. All these rats had intrathecal catheters.
Isoflurane (1-chloro-2,2,2-trifluoroethyl difluoromethyl ether) and sevoflurane (fluoromethyl 2,2,2-trifluoro-1-(trifluoromethyl) ethyl ether) were used as the halogenated ether compounds. Both of these are halogenated volatile anesthetic agents, with isoflurane manufactured by Baxter and sevoflurane manufactured by Abbott Laboratories. The 12 rats were divided into 3 groups of four rats each for study A and B.
In the first group, 2 microliters of preservative-free normal saline was injected via the intrathecal catheter into each rat. This catheter was then flushed with preservative-free normal saline. Pain behavioral testing on this group was then performed.
In the second group, 2 microliters of isoflurane was injected via the intrathecal catheter into each rat. This catheter was also flushed with preservative-free normal saline. This group was then subjected to pain behavioral testing.
In the third group, 2 microliters of sevoflurane was injected via the intrathecal catheter into each rat. This catheter was also flushed with preservative-free normal saline. This group was then subjected to pain behavioral testing.
A “hotplate” behavioral test was used to evaluate pain perception and analgesia. The pain behavioral testing model used in these studies have been well established by Tony Yaksh. (See, e.g. Chaplan et al., 1994; Yaksh et al., 2001; Kim and Chung, 1992; Sorkin et al., 2001). This test involves determining how quickly a rat will withdraw its hind paw in response to a noxious stimulus such as a radiant heat source placed directly underneath its paw. This time for withdrawal is known as “thermal withdrawal latency”.
Rats were transferred for testing onto a modified Hargreaves apparatus with a heated glass plate maintained at 25° C. (see Hargreaves et al., 1988). A focused projection bulb below the plate was aimed at the mid-plantar surface of the paw. A photodiode-activated timer measured the withdrawal latency, and a cutoff time of 25 seconds was used to prevent tissue damage. Thermal withdrawal latency to radiant heat was measured at 5 minutes and 30 minutes after each intrathecal injection. Each paw was tested three times, and the results were averaged. […]

A short description of data set [1]: Stability/volatility: weighing remaining isoflurane in uncapped vials over time. The data set is classed as physicochemical. The note with it: for Effect of the solvent on the volatility of isoflurane: solution versus pure isoflurane (Table 6). How it is done: The stability of isoflurane in the compositions was determined in two ways. Firstly, the compositions were examined for the presence of phase separation at the macroscopic level. Secondly, isoflurane content of the compositions were determined by weighing the remaining isoflurane in the composition when they were left uncapped over time. […] The other vials received varying amounts of isoflurane. They were left uncapped in the hood. Over time (0, 0.4, 1 , 16 , 24 h), the vials were weighed to see if the isoflurane stayed in the composition or evaporated. The amount evaporated over time in the vehicle was subtracted from that in the isoflurane composition, and therefore the amount of isoflurane in the vehicle was roughly determined at each time point.
Pure form of isoflurane is a volatile agent. In order to determine the volatility of isoflurane, two vials received the indicated amounts of pure form of isoflurane. The vials were placed in the chemical fume hood and left uncapped. The vials were weighed in the indicated times to determine the amount of evaporated isoflurane. As it is shown in the table below 0.7893g isoflurane was evaporated within 3 hrs whereas 3.4825 g isoflurane took approximately 8 hrs to evaporate completely. These amounts of isoflurane are similar to the amounts of isoflurane that were used to prepare isoflurane (iso) compositions as shown below.

[2] abbreviates: 100 μl subcutaneously into hindpaw.
[3] abbreviates: 5 minutes after 2 microliters intrathecal.
Where [4] appears, read: 5 minutes after 2 microliters intrathecal, saline control group 8.33.
[5] abbreviates: 30 minutes after 2 microliters intrathecal.
Setting [6] is: 30 minutes after 2 microliters intrathecal, saline control group 8.40.

Where “and” joins values, the source holds several entries; their conditions need not be identical. Equal values may be shown once. A value given as a limit tells only on which side of the number the result lay.

Take `CCN(CC)CC(=O)Nc1c(C)cccc1C` [lidocaine]: in the data set with rats (setting [2]), the “Peak of the antinociceptive effect” value is given as 15 min, the “Return of the antinociceptive effect to baseline levels” value is 45 min and the “Start of the antinociceptive effect” value worked out at 5 min. Besides, in the data set with rats, the “Antinociceptive effect, treated versus untreated (contralateral) paw” value was “significant antinociceptive effect”.

Turning to `FCOC(C(F)(F)F)C(F)(F)F` [Sevoflurane, fluoromethyl 2,2,2-trifluoro-1-(trifluoromethyl) ethyl ether], in the data set on Sprague-Dawley rats (setting [3]), the “Thermal withdrawal latency, Average (per rat)” value was 14.65 s and 13.82 s and 13.14 s and 12.98 s; the “Thermal withdrawal latency, Test 1 Left” value was 14.90 s and 13.38 s and 12.34 s and 11.83 s; the “Thermal withdrawal latency, Test 1 Right” value was 13.81 s and 17.19 s and 14.98 s and 10.31 s; the “Thermal withdrawal latency, Test 2 Left” value is 15.11 s and 12.31 s and 11.03 s and 12.66 s. Further, in the data set on Sprague-Dawley rats (setting [3]), the “Thermal withdrawal latency, Test 2 Right” value is 13.23 s and 14.29 s and 13.93 s and 13.20 s; the “Thermal withdrawal latency, Test 3 Left” value was 14.83 s and 12.01 s and 14.16 s and 12.31 s; the “Thermal withdrawal latency, Test 3 Right” value is 16.03 s and 13.75 s and 12.37 s and 17.59 s. In addition, in the data set with Sprague-Dawley rats (setting [4]), the “Thermal withdrawal latency, Group Average” value stood at 13.65 s. For the same compound, in the data set with Sprague-Dawley rats (setting [5]), the “Thermal withdrawal latency, Average (per rat)” value was 8.61 s and 8.35 s and 8.89 s and 9.54 s; the “Thermal withdrawal latency, Test 1 Left” value was 8.54 s and 6.87 s and 8.44 s and 10.93 s; the “Thermal withdrawal latency, Test 1 Right” value was 9.23 s and 7.38 s and 10.05 s and 9.55 s; the “Thermal withdrawal latency, Test 2 Left” value is 8.29 s and 7.99 s and 11.74 s and 6.68 s. In the data set with Sprague-Dawley rats (setting [5]), the “Thermal withdrawal latency, Test 2 Right” value was 7.30 s and 8.92 s and 9.32 s and 8.67 s; the “Thermal withdrawal latency, Test 3 Left” value is 8.87 s and 8.10 s and 6.13 s and 12.11 s; the “Thermal withdrawal latency, Test 3 Right” value was 9.43 s and 10.83 s and 7.66 s and 9.27 s. Further, in the data set on Sprague-Dawley rats (setting [6]), the “Thermal withdrawal latency, Group Average” value amounted to 8.84 s. Moreover, in the data set with Sprague-Dawley rats, the Adverse effects entry was “None of the rats in the study experienced adverse effects”, the “Full recovery from the intrathecal injection (return to thermal latency baseline)” value is 30 min and the Analgesic effect entry is “analgesic effect”.

In the case of `FC(F)OC(Cl)C(F)(F)F` (stereo not drawn) [Isoflurane, 1-chloro-2,2,2-trifluoroethyl difluoromethyl ether], in the data set on Sprague-Dawley rats (setting [3]), the “Thermal withdrawal latency, Average (per rat)” value is 19.25 s and 18.21 s and 18.63 s and 17.95 s; the “Thermal withdrawal latency, Test 1 Left” value was 17.23 s and 19.24 s and 18.11 s and 19.71 s; the “Thermal withdrawal latency, Test 1 Right” value was 19.81 s and 17.19 s and 19.20 s and 20.31 s; the “Thermal withdrawal latency, Test 2 Left” value was 18.91 s and 17.65 s and 19.80 s and 17.18 s. In the data set with Sprague-Dawley rats (setting [3]), the “Thermal withdrawal latency, Test 2 Right” value was 20.38 s and 15.88 s and 17.90 s and 18.34 s; the “Thermal withdrawal latency, Test 3 Left” value was 18.82 s and 20.72 s and 20.07 s and 16.38 s; the “Thermal withdrawal latency, Test 3 Right” value is 20.34 s and 18.59 s and 16.71 s and 16.75 s. In addition, in the data set with Sprague-Dawley rats (setting [4]), the “Thermal withdrawal latency, Group Average” value is 18.51 s. In the data set with Sprague-Dawley rats (setting [5]), the “Thermal withdrawal latency, Average (per rat)” value is 9.48 s and 8.93 s and 10.52 s and 9.21 s; the “Thermal withdrawal latency, Test 1 Left” value was 9.12 s and 6.35 s and 8.37 s and 10.27 s; the “Thermal withdrawal latency, Test 1 Right” value is 9.87 s and 9.08 s and 6.32 s and 9.41 s; the “Thermal withdrawal latency, Test 2 Left” value is 9.02 s and 8.22 s and 8.45 s and 7.04 s. In addition, in the data set with Sprague-Dawley rats (setting [5]), the “Thermal withdrawal latency, Test 2 Right” value is 10.59 s and 7.81 s and 9.48 s and 6.76 s; the “Thermal withdrawal latency, Test 3 Left” value is 9.77 s and 11.62 s and 10.48 s and 10.32 s; the “Thermal withdrawal latency, Test 3 Right” value was 8.54 s and 10.49 s and 11.03 s and 7.88 s. Moreover, in the data set on Sprague-Dawley rats (setting [6]), the “Thermal withdrawal latency, Group Average” value is 9.53 s. In addition, in the data set with Sprague-Dawley rats, the Adverse effects entry is given as “None of the rats in the study experienced adverse effects”, the “Full recovery from the intrathecal injection (return to thermal latency baseline)” value amounted to 30 min and the Analgesic effect entry was “analgesic effect”. Moreover, the “% remaining iso, 0 h” value in data set [1] (0 h) was 100%. The “Time for isoflurane to evaporate” value in data set [1] (0.7893 g pure isoflurane, uncapped) was not above 3 h. For the same compound, the “Time for isoflurane to evaporate completely” value in data set [1] (3.4825 g pure isoflurane, uncapped) was “approximately 8 hrs”. Further, the “% remaining iso, 5 h” value in data set [1] (5 h) was 38%. Further, in data set [1] (7 h), the “% remaining iso, 7 h” value turned out to be 13%. For the same compound, the “% remaining iso, 8 h” value in data set [1] (8 h) stood at 3%. Moreover, in the data set on rats (setting [2]), the “Duration of the antinociceptive effect” value is recorded as “continued throughout the experiment” and the “Start of the antinociceptive effect” value turned out to be 25 min. Also, the “Antinociceptive effect, treated versus untreated (contralateral) paw” value with rats is reported as “significant (P<0.05) antinociceptive effect”.

On to `CC(O)CO` (stereo not drawn) [propylene glycol], for which the “Reduction of isoflurane volatility compared with NMP” value in data set [1] (Table 10 versus Table 8) is reported as “not as good as NMP”. The “Effect of the solvent on the volatility of isoflurane” value in data set [1] is “reduced the volatility of isoflurane”.

Take `CN1CCCC1=O` [NMP, N-Methyl-2-pyrrolidone]: the “Effect of the solvent on the volatility of isoflurane” value in data set [1] is reported as “reduced the volatility of isoflurane”.

Values taken from patent US20200253864A1, “VOLATILE ANESTHETIC COMPOSITIONS COMPRISING EXTRACTIVE SOLVENTS FOR REGIONAL ANESTHESIA AND/OR PAIN RELIEF” (The Board of Regents of the University of Texas System, priority 2008, published 2020).
